“And” between values parts separate entries of the source, which are not always exact repeats. Identical values can stand only once.
Tests used:
[1] = system: progressive multiple sclerosis; conditions: cited from earlier work
[2] = system: patients with progressive MS (pMS); test: Prospective observational 12-month study of pMS patients with newly introduced MD1003 (pMS-b cohort): T25FW, Po and falls at M0 and M6; assay type: in vivo, human; conditions: for mean change in Po / mean change in TW25F: M6 vs M0
Experimental: We perform a prospective observational study to evaluate a measure of a surrogate of ankle push-off moment power (Po) as a biomarker of evolution in pMS patients with stable treatment and pMS patients with newly introduced MD1003 (high-dose biotin). Po is measured during a 10m-walk with U-turn and back, using an IMU attached to each foot. The objective is to assess whether the dynamic measure of Po at 6-month interval reflects the response to treatment (assessed using the change in the timed 25-foot walk or the Expanded Disease Status Scale) and the change in fall risk within 6 months.
Second, the inventors aim at measuring how this variation in Po impact evolution of fall risk in this group of pMS patients. […] The T25FW, Po and risk of falls was assessed every 6 months using a simple validated protocol and the evolution of Po and the risk of falls were compared for each individual according to their response to treatment.
Patients—Thirty-three patients with progressive MS (pMS) and 20 gender and age-matched healthy subjects (HS) were enrolled in this longitudinal prospective study (table 1). pMS were recruited consecutively from the outpatient clinic of Percy Hospital (Clamart, France) between December 2017 and April 2018. The inclusion criteria for participation in the pMS cohorts required participants to be at least 18 years old, be diagnosed with primary progressive or secondary progressive multiple sclerosis according to the 2010 International Panel criteria, be capable of walking 20 m with U-turn, be free of any other conditions that affect gait. The exclusion criteria was pregnancy and high-dose biotin intake before M0. From the pMS cohort, the inventors isolated a subgroup, named pMS-b cohort, built with patients who were treated with high-dose biotin (MD1003 100 mg, three times a day) for at least one year after inclusion. For participating in the pMS-b cohort, additional inclusion criteria were those of the cohort Temporary Use Authorisation (TUAc) of MD1003—they had to have been free of any relapse for at least one year and sign the consent to enter the TUA cohort. The other patients were included in a group named pMS-nb. Exclusion criteria from this pMS-nb cohort were the presence of drug intake modification for the six-months prior to inclusions or during the twelve-month follow-up. HS participants were recruited from the hospital and research unit staff between December 2017 and April 2018. The inclusion criteria for participation in the HS cohort included: no report of falls in the past 5 years before inclusion, no disease that could affect their walk. Seventeen patients were included in the pMS-b cohort and 16 in the pMS-nb cohort. All participants gave their written consent to participate in the study. The study protocol was conducted according to the Helsinki principles and approved by Ethic Comity “Protection des Personnes Nord Ouest III” under the ID RCB: 2017-A01538-45.
Measures—Gait was measured using four 3-dimensional accelerometers (Mtw XSens®, 100 Hz sampling frequency) positioned on the head, lower back (L4-L5 vertebrae) and dorsal part of both feet. Participants performed two walks of 20 m with U-turn (10 m way in and 10 m way out). One trial per visit only was used in this study, as the second trial was done with specific conditions for the sake of a reproducibility test in a previous study. A limit at 7.62 m was drawn for the assessor to timeclock the T25FW during the first way-in. Disease severity was assessed using patient-reported outcomes (the Multiple Sclerosis Walking Scale-12—MSWS—and the Fatigue Impact Scale—FIS) together with clinical evaluation (Expanded Disease Severity Scale [10]-EDSS—and Computerized Speed Cognitive Test [11]—CSCT) and the 25-foot walking test administered according to a validated standardized protocol. […]

[3] = pMS-b (n = 17), T25FW at M6 vs M0

For `O=C(O)CCCC[C@@H]1SC[C@@H]2NC(=O)N[C@@H]21` [MD1003, biotin], the “response to treatment as defined by a 20% decrease in TW25F” value ([1]; cohort of the phase 3 clinical trial [14]) is listed as 8.7%, the “patients in whom the T25FW time decreased by 20%” value ([1]; recently demonstrated efficacy of MD1003) is listed as 10% and the “response to treatment as defined by a 20% decrease in TW25F” value ([2]; our cohort (pMS-b)) is listed as 13%. The “complete responder (≥20% decrease), number of patients” value ([2]; pMS-b (n = 17), MD1003 100 mg three times a day, T25FW at M6 vs M0) was 3/17 and 3, the “complete progressor (≥20% increase), number of patients” value [2, 3] was 5 and the “complete progressor (≥20% increase), percent of patients” value [2, 3] was “(29%)”. The “non responder (−10-10% decrease), number of patients” value [2, 3] was 5, the “non responder (−10-10% decrease), percent of patients” value [2, 3] was “(29%)” and the “partial progressor (10-20% increase), number of patients” value [2, 3] was 2. The “partial progressor (10-20% increase), percent of patients” value [2, 3] was “(12%)”, the “partial responder (10-20% decrease), number of patients” value [2, 3] was 2 and the “partial responder (10-20% decrease), percent of patients” value [2, 3] was “(12%)”. For the same compound, the “participants who decreased their number of falls among the three with Po decreased by more than 20%” value ([2]; pMS-b cohort) was “Two”, the “significant change of Po after beginning of MD1003” value ([2]; pMS-b cohort) was “nearly half the cohort” and the “responders (response to treatment by change in timed 25-foot walk or EDSS)” value ([2]; pMS-b cohort, summary of results, M0 to M6) was 2/17. For the same compound, the “participants who decreased their Po by more than 20%” value ([2]; pMS-b cohort, M0 to M6) was “Three”, the “mean change in Po” value ([2]; pMS-b complete progressors) was −0.36 and the “mean change in TW25F” value ([2]; pMS-b complete progressors) was 1.39. For the same compound, the “mean change in Po” value ([2]; pMS-b complete responders) was 0.33, the “mean change in TW25F” value ([2]; pMS-b complete responders) was −0.26 and the “number of falls in the following 6 months in the 4 patients with significant increase (higher than 20%) in Po” value ([2]; pMS-b group) was “equal or lower number of falls”. The “patients showing an increase in Po of more than 20%” value ([2]; pMS-b group, 17 patients, M0 to M6) was 4, the “patients who increased their Po” value ([2]; pMS-b group, out of the 17 patients, M0 to M6) was 8 and the “patients who did not fall during the first 6-month period and began falling during the second 6-month period” value ([2]; pMS-b group, M0-M6 vs M6-M12) was 3. For the same compound, the “patients who fell during the first 6-month period and stopped falling during the second 6-month period” value ([2]; pMS-b group, M0-M6 vs M6-M12) was 1, the “mean change in Po” value ([2]; pMS-b non responders) was −0.02 and the “mean change in TW25F” value ([2]; pMS-b non responders) was 0.00. For the same compound, the “mean change in Po” value ([2]; pMS-b partial progressors) was 0.05, the “mean change in TW25F” value ([2]; pMS-b partial progressors) was 0.17 and the “mean change in Po” value ([2]; pMS-b partial responders) was 0.14. For the same compound, the “mean change in TW25F” value ([2]; pMS-b partial responders) was −0.17 and the effect on locomotion ([2]; small sample of pMS patients) was “improved the locomotion in a subset pMS patients”.
